Measurements published in the NIST ThermoML archive (doi:10.1016/j.fluid.2016.01.028).
± gives the expanded uncertainty stated by the source.

Settings: Liquid, Closed cell (Static) method

Row | SMILES | vapor or sublimation pressure (283.15 K) [kPa] | vapor or sublimation pressure (293.15 K) [kPa] | vapor or sublimation pressure (303.15 K) [kPa] | vapor or sublimation pressure (313.15 K) [kPa] | vapor or sublimation pressure (323.15 K) [kPa]
1 | FCC(F)(F)F [1,1,1,2-tetrafluoroethane] | 415.5 ± 1.2 | 572.4 ± 1.3 | 768.9 ± 1.5 | 1015.5 ± 1.8 | 1317.2 ± 2.1
2 | C=C(F)C(F)(F)F [2,3,3,3-tetrafluoro-1-propene] | 437.9 ± 1.2 | 591.5 ± 1.3 | 782.9 ± 1.5 | 1018.2 ± 1.8 | 1302.4 ± 2.1
3 | CC(C)C [2-methylpropane] | 220.9 ± 1.1 | 302.7 ± 1.1 | 404.4 ± 1.2 | 531.3 ± 1.3 | 684.2 ± 1.4
